Patent US7674771B2, “Antimicrobial peptides and utilization of the same” (Toagosei Co., Ltd, priority 2003, dated 2010)
Where two headings read alike, the source gives them in different places. Ends that are not written are not given here.

What was measured:
[1] = test system: Escherichia coli IFO 3972; test: MIC by liquid medium dilution technique, 96-well microplate, gram-negative bacteria; format: cell-based
Protocol: (§1) Regarding the antimicrobial peptide (samples 1 to 20) related to the present invention, the antimicrobial activities (minimum inhibitory concentration: MIC) with respect to gram-negative bacteria (Escherichia coli IFO 3972) and gram-positive bacteria (Staphylococcus aureus IFO 12732) were determined by a liquid medium dilution technique using a 96-well microplate.
(§2) First, a drug (synthesized polypeptide) solution having a concentration of 40 times of the highest test concentration was prepared using sterile distilled water, and liquid-bouillon mediums (more specifically, “Mueller Hinton Broth” manufactured by DIFCO) including cation and having drug concentrations of 100, 50, 25, 12.5, 6.3, 3.1, 1.6 and 0.8 μM were respectively produced. The cation included was prepared as follows: dissolving 3.68 g of CaCl2.2H2O in 100 mL of purified water (10 mg.Ca^2+/mL), and thereafter adding 500 μL thereof into 100 mL of Mueller Hinton Broth; and dissolving 8.36 g of MgCl2.6H2O in 100 mL of purified water (10 mg.Mg^2+/mL), and thereafter adding 250 μL thereof into 100 mL of Mueller Hinton Broth. Thereafter, the produced liquid-bouillon mediums including the drug of each concentration were then fed to the 96-well microplate at […] a time.
(§3) At the same time, test bacteria cultured for 18 hours at 37° C. on an agar plate (“Muller Hinton Agar” manufactured by DIFCO) were gathered by scratching with a loop, and then suspended in a sterilized physiological saline. Bacterial suspension 5 μL prepared at an equivalent of 2×10^7 cells/mL was respectively inoculated (number of bacteria to be tested: approximately 1×10^6 cells/mL) onto the drug solution and fed to each well of the above-described microplate. After inoculation, the microplate was then incubated in an incubator at 37° C., and the presence of bacteria was evaluated based on the turbidity 24 hours later. The minimum drug concentration (polypeptide concentration), in which an increased in turbidity caused by bacteria was not detected at the time of measurement, was defined as MIC (minimum inhibitory concentration) (unit: μM) in the present embodiment. In addition, MIC were determined in the same manner using polymyxin B as a comparison.

[2] = test system: Staphylococcus aureus IFO 12732; format: cell-based
Protocol: as §1, §2, §3

[3] = test system: S. aureus; format: cell-based, Staphylococcus aureus
Protocol: as §2, §3
Next, the antimicrobial activities (MIC) against gram-positive bacteria (S. aureus) in the presence of serum were tested with the same method as Example 2. […] Thereafter, the produced liquid-bouillon mediums including the drug and the serum of each concentration were then fed to the 96-well microplate at […] a time, and MIC were determined by the method same as Example 2. Sample X in the table is a mixture of sample 1 and sample 16 based on a mass ratio of 1:1. “-” in the table indicate “untested”.

[4] = test system: Aspergillus niger IFO 6341; format: cell-based
Protocol: (§4) Antimicrobial activity against fungi (Aspergillus niger IFO 6341) of the antimicrobial peptides related to the present invention was tested according to a general antimycotic susceptibility test as follows.
More specifically, a slant or plate medium (“potato dextrose agar” medium manufactured by DIFCO was used typically) adhered with spores (conidia) was prepared in advance, and A. niger (IFO 6341; JIS test strain) were gathered from the medium by scratching the medium surface 4 to 5 times from bottom up with a 1 μL disposable loop and suspended in 25 mL of PBS (free of Mg, Ca) solution containing 0.05% of surfactant (Tween® 80). Thereafter, pipetting was performed using a measuring pipette or the like such that clusters of black spores disappeared completely. The spore concentration of the spore suspension prepared by such method was determined using a hemocytometer while the above-described surfactant containing PBS solution was being diluted accordingly, thereby deriving a spore suspension having a spore concentration of approximately 2.5×10^5 spores/mL.
At the same time, the above-described two polypeptides (samples 1, 3) and benzalkonium chloride serving as a comparison for antimycotic activity were dissolved in 10 mM of HEPES buffer (pH7.0) respectively to prepare stock solutions with a 2.0 mg/mL drug concentration. These were sequentially diluted to prepare various kinds of test drugs with drug (each polypeptide or benzalkonium chloride) concentrations of 400, 200, 100, 50, 25, 5 and 0.5 μg/mL.
A spore germination inhibition test and a spore growth inhibition test were performed using the above-prepared drugs and spore suspension as follows.
First, each of the above-described drugs was fed to the 96-well microplate at 40 μL a time for the spore germination inhibition test. The surplus drugs were stored in a refrigerator (4° C.) to be used for the spore growth inhibition test to be perform at a later date.
(§5) Next, a test fungus suspension was prepared by adding, with respect to 10 part by mass of the above-described spore suspension, 2 parts by mass of Alamar Blue fluorescence reagent (product of Wako Pure Chemical Industries, Ltd.) and 8 parts by mass of RPMI1640 medium containing 0.165M of MOPS, which was prepared by dissolving 5.2 g of RPMI1640 (product of Irvine Scientific) and 1.0 g of NaHCO3 in 450 mL of sterile distilled water and thereafter adding 17.12 g of MOPS and stirring, and adjusting the pH value to 7.0 by adding NaOH, and then filling up to 500 mL by adding sterile distilled water. Then, the fungus suspension was fed at 160 μL a time to the wells in which the above-described drugs were added. In addition, empty wells in which no drug was added were also fed at 160 μL a time for spore growth inhibition test. After feeding, it was cultured under a humid environment for 16 hours in an incubator at 30° C.
Twenty-four hours and 48 hours after the beginning of culturing, the colour of the mediums in the wells used for spore germination inhibition test and the wells for spore growth inhibition test were observed. Here, those in which the Alamar Blue included within the medium remain blue (oxidized form) were evaluated as positive of antimicrobial activity positive, and those that are pink (reduced form) were evaluated as negative of antimicrobial activity. Moreover, the smallest drug concentration recognized as oxidized form (blue color) was served as MIC (minimum growth inhibitory concentration) in the spore germination inhibition test and the spore growth inhibition test related to the present example.

[5] = test system: Aspergillus niger IFO 6341; format: cell-based; conditions: IFO 6341, 24 h
Protocol: as §4
More specifically, a slant or plate medium (“potato dextrose agar” medium manufactured by DIFCO was used typically) adhered with spores (conidia) was prepared in advance, and A. niger (IFO 6341; JIS test strain) were gathered from the medium by scratching the medium surface 4 to 5 times from bottom up with a 1 μL disposable loop and suspended in 25 mL of PBS (free of Mg, Ca) solution containing 0.05% of surfactant (Tween® 80). Thereafter, pipetting was performed using a measuring pipette or the like such that clusters of black spores disappeared completely. The spore concentration of the spore suspension prepared by such method was determined using a hemocytometer while the above-described surfactant containing PBS solution was being diluted accordingly, thereby deriving a spore suspension having a spore concentration of approximately 2.5×10^5 spores/mL. […]
as §5, with “Then, the fungus suspension was fed at 160 μL a time to the wells in which the above-described drugs were added. In addition, empty wells in which no drug was added were also fed at 160 μL a time for spore growth inhibition test. After feeding, it was cultured under a humid environment for 16 hours in an incubator at 30° C.” left out
Sixteen hours after the beginning of culturing, the plate was retrieve from the incubator, and the presence of generation (growth) of mycelia in each well (well that had already been fed exclusively by the above-described test drug) used for spore growth inhibition test was evaluated with a microscope. […]

[6] = test system: methicillin-resistant Staphylococcus aureus (MRSA, No. 164 strain); test: Treatment effect test on mice infected by MRSA, bacterial count in intestine content; format: in vivo; conditions: oral 100 mg/kg; for MRSA bacterial quantity in intestine content, administered group 1 / MRSA bacterial quantity in intestine content, administered group 2 / MRSA bacterial quantity in intestine content, administered group 3 / MRSA bacterial quantity in intestine content, administered group 4 / MRSA bacterial quantity in intestine content, administered group 5 / MRSA bacterial quantity in intestine content, Average: mice; for MRSA bacterial quantity in intestine content, administered group 1 / MRSA bacterial quantity in intestine content, administered group 2 / MRSA bacterial quantity in intestine content, administered group 3 / MRSA bacterial quantity in intestine content, administered group 4 / MRSA bacterial quantity in intestine content, administered group 5: approximately 24 hours after administration; for MRSA bacterial quantity in intestine content, Average: average of groups 1-5
Protocol: The following test was performed to evaluate the treatment effect on mice infected by bacterial (MRSA) of sample 22 obtained by synthesis.
Mice (ICR, SLC, male, 5 weeks old) were prepared by rearing on drinking water mixed with amphotericin B (AMPH: product of Bristol-Myers Company) and tetracycline, such that their concentrations are 10 μg/mL (AMPH) and 2000 μg/mL (tetracycline) respectively, a week before the start of the test, and the immunity of the mice was weaken by administrating 200 mg/kg amount of cyclophosphamide into the abdominal for 3 days from the fourth day prior to the test.
Bacterial suspension prepared by suspending methicillin-resistant Staphylococcus aureus (MRSA, No. 164 strain) in 10% (w/v) of mucin solution was orally administered to the mice at a bacterial administration quantity of 10^8 cells/mouse, thereby eliciting MRSA infection.
One hour after the bacterial inoculation, antimicrobial agent prepared by suspending the test material (therefore polypeptide of sample 22) in 10% of gum arabic solution was orally administered. The administered quantity of suspension was 100 mg/kg. A total of 5 test groups, with each test group containing 5 test mice, were tested. For comparison, antimicrobial agent prepared by suspending vancomycin in 10% of gum arabic solution was orally administered to the test mice under the same conditions.
After the drug administration, test mice were slaughtered approximately 24 hours later, and the contents in the intestine extracted, and the bacterial count of MRSA examined. More specifically, 1.8 mL of physiological saline was added to and mixed with approximately 0.2 g of intestine contents. A fixed quantity of such mixture was smeared on mannitol agar medium (product of Nissui Pharmaceutical Co., Ltd) including gentamicin (GM) with a concentration of […], and cultured for 3 days at 37° C.

[7] = Mueller Hinton Broth with cation, 37° C., turbidity after 24 hours

Compound	Antimicrobial Activities (MIC) E. coli ([1]; IFO 3972, 24 h) [µM]	Antimicrobial Activities (MIC) S. aureus ([2]; IFO 12732, 24 h) [µM]	Antimicrobial Activities (MIC) against S. aureus, horse serum concentration 10% [3] [µM]	MRSA bacterial quantity in intestine content, administered group 1 [6]	MRSA bacterial quantity in intestine content, administered group 2 [6]	MRSA bacterial quantity in intestine content, administered group 3 [6]	MRSA bacterial quantity in intestine content, administered group 4 [6]	MRSA bacterial quantity in intestine content, administered group 5 [6]	MRSA bacterial quantity in intestine content, Average [6]	further results
H-RIRKKLRLMWWML-NH2 [sample 3, RIRKKLRLMWWML-CONH2]	6.3	3.1	3.1	–	–	–	–	–	–	MIC against A. niger, spore germination inhibition test after 24 hours ([4]; IFO 6341, 24 h): 100 µg/mL; MIC against A. niger, spore germination inhibition test after 48 hours ([4]; IFO 6341, 48 h): 100 µg/mL; MIC against A. niger, spore growth inhibition test after 24 hours [5]: 100 µg/mL
polymyxin B [reference compound]	–	–	–	–	–	–	–	–	–	Antimicrobial Activities (MIC) E. coli [1, 7]: 1.6 µM; Antimicrobial Activities (MIC) S. aureus [2, 7]: 6.3 µM; Antimicrobial Activities (MIC) against S. aureus, horse serum concentration 10% ([3]; horse serum 10%): 6.3 µM; Antimicrobial Activities (MIC) against S. aureus, horse serum concentration 20% ([3]; horse serum 20%): 6.3 µM; Antimicrobial Activities (MIC) against S. aureus, horse serum concentration 50% ([3]; horse serum 50%): 3.1 µM
H-RGDLMWWMLAR-NH2 [comparative sample 1, RGDLMWWMLAR-CONH2, reference compound]	>100	>100	>50	–	–	–	–	–	–	–
H-LMWWMLRIRKKLR-NH2 [sample 4, LMWWMLRIRKKLR-CONH2]	6.3	3.1	6.3	–	–	–	–	–	–	–
CN[C@H](CC(C)C)C(=O)N[C@H]1C(=O)N[C@@H](CC(N)=O)C(=O)N[C@H]2C(=O)N[C@H]3C(=O)N[C@H](C(=O)N[C@H](C(=O)O)c4cc(O)cc(O)c4-c4cc3ccc4O)[C@H](O)c3ccc(c(Cl)c3)Oc3cc2cc(c3O[C@@H]2O[C@H](CO)[C@@H](O)[C@H](O)[C@H]2O[C@H]2C[C@](C)(N)[C@H](O)[C@H](C)O2)Oc2ccc(cc2Cl)[C@H]1O [Vancomycin, vancomycin, reference compound]	–	–	–	8 ×10^3 cells/g	10 ×10^3 cells/g	43 ×10^3 cells/g	22 ×10^3 cells/g	26 ×10^3 cells/g	22 ×10^3 cells/g	–
LKRKLQRVVYWLL-CONH2 (LKRKLQRVVYWLL-NH2) [sample 22]	–	–	–	36 ×10^3 cells/g	35 ×10^3 cells/g	30 ×10^3 cells/g	16 ×10^3 cells/g	26 ×10^3 cells/g	29 ×10^3 cells/g	treatment effect on MRSA-infected mice, in words ([6]; compared with vancomycin): exhibited the same effect as the drug including vancomycin
